Measured values: patent US20170367394A1, “PROCESS FOR INCREASING THE STABILITY OF A COMPOSITION COMPRISING POLYUNSATURATED OMEGA-6 FATTY ACIDS” (Evonik Degussa GmbH, priority 2014, published 2017)

What was measured:
Assay type in all cases: physicochemical
[1] = Anisidine Value (AV, secondary oxidation products) according to Ph. Eur. 2.5.36, before and after storage at 50° C. exposed to air; conditions: for Anisidine Value: as obtained / as supplied (experiments 1-4)
Description: An exemplary procedure for determining the Anisidine Value (AV) of a sample is performed as follows:
The anisidine value is defined as 100 times the optical density measured in a 1 cm cell of a solution containing 1 g of the substance to be examined in 100 ml of a mixture of solvents and reagents according to the following method. Carry out the operations as rapidly as possible, avoiding exposure to actinic light.
Test solution (a): Dissolve 0.500 g of the substance to be examined in trimethylpentane and dilute to 25.0 ml with the same solvent.
Test solution (b): To 5.0 ml of test solution (a) add 1.0 ml of a 2.5 g/I solution of p-anisidine in glacial acetic acid, shake and store protected from light.
Reference solution: To 5.0 ml of trimethylpentane add 1.0 ml of a 2.5 g/I solution of p-anisidine in glacial acetic acid, shake and store protected from light. Measure the absorbance of test solution (a) at the maximum at 350 nm using trimethylpentane as the compensation liquid. Measure the absorbance of test solution (b) at 350 nm exactly 10 min after its preparation, using the reference solution as the compensation liquid. Calculate the anisidine value (AV) from the expression:
(§1) Primary oxidation products (hydroperoxides at double bonds) were quantified by determining the Peroxide Value (PV) according to Ph. Eur. 2.5.5 (01/2008:20505). Secondary oxidation products (carbonyl compounds) were quantified by determining the Anisidine Value (AV) according to Ph. Eur. 2.5.36 (01/2008:20536).
(§2) 30 g each of the liquid ethyl arachidonic acid glycerin ester and the gamma-linolenic acid ethyl ester used in experiments 1 and 2 as well as of the arachidonic acids and the gamma-linolenic acid obtained in experiments 1 and 2 were filled into 500 ml Schott Duran glass bottles.
(§3) About 30 g each of the solid lysine-salts ARA-Lys and GLA-Lys obtained in experiments 3 and 4 were filled Schott Duran glass bottles.
(§4) All of the bottles were placed together with opened lids in a drying oven with an opened ventilation valve at 50° C. and stored in the dark under these conditions for 81 days.

[2] = Oligomer content by gel-chromatography (GPC, RI detector); conditions: as obtained
Description: Oligomeric PUFA constituents as well as their derivatives (collectively referred to as oligomer content) were quantified by gel-chromatographic means (GPC, styroldivinylbenzene-phase with tetrahydrofuran containing trifluoroacetic acid used as eluent). A refractive index (RI) detector was used for detection. Due to the fact that specific response factors of the constituents of the samples were unknown, proportions were calculated based upon fractional proportions of the total area of chromatograms.

[3] = Peroxide Value (PV, primary oxidation products) according to Ph. Eur. 2.5.5, before and after storage at 50° C. exposed to air
Description: An exemplary procedure for determining the Peroxide Value (PV) of a sample is performed as follows:
Peroxide value=(S−B)*N thiosulfate*1000/weight of sample
as §1, §2, §3, §4

[4] = t = 81 days, open bottles, 50° C., exposed to air, in the dark

Compound | Anisidine Value [1] | Anisidine Value (AV) ([1]; t = 0, before storage) [A/g] | Anisidine Value (AV) [1, 4] [A/g] | Peroxide Value (PV) ([3]; t = 0, before storage) [mmol/kg] | Peroxide Value (PV) [3, 4] [mmol/kg] | Peroxide Value ([3]; commercially available starting material as supplied) [mmol/kg] | Oligomer content [2] [area-%] | Peroxide Value ([3]; as obtained (experiments 1-4)) [mmol/kg]
CCCCC/C=C\C/C=C\C/C=C\C/C=C\CCCC(=O)O [ARA-OH, all-cis-5,8,11,14-eicosatetraenoic acid] | 4.2 | 4.2 | 211 | 7.2 | 5.8 |  |  | 7.2
Gamma-Linolenic acid-L-Lysine Salt [GLA-Lys] | 5.4 | 5.4 | <1 | 1.0 | <1 |  | 0.6 | 1.0
Arachidonic acid-L-Lysine Salt [ARA-Lys] | 1 | 1 | <1 | <1 | <1 |  | 1.1 | < 1

Continued, in another order:

Anisidine Value [1] | Anisidine Value (AV) ([1]; t = 0, before storage) [A/g] | Anisidine Value (AV) [1, 4] [A/g] | Peroxide Value (PV) ([3]; t = 0, before storage) [mmol/kg] | Peroxide Value (PV) [3, 4] [mmol/kg] | Peroxide Value ([3]; commercially available starting material as supplied) [mmol/kg] | Compound | Oligomer content [2] [area-%] | Peroxide Value ([3]; as obtained (experiments 1-4)) [mmol/kg]
7.6 | 7.6 | 137 | 5.6 | 1.3 |  | CCCCC/C=C\C/C=C\C/C=C\CCCCC(=O)O [GLA-OH, gamma-linolenic acid] | 0.3 | 5.6
19.1 | 19.1 | 1237 | 52.1 | 86.3 | 52.1 | CCCCC/C=C\C/C=C\C/C=C\CCCCC(=O)OCC [GLA-OEt, gamma-linolenic acid ethyl ester] |  | 
